Source: patent publication US6916808B2, “2-thio-4h-3, 1-benzoxazin-4-one derivatives for use as enzyme inhibitors” (Alizyme Therapeutics Limited, priority 2000, dated 2005)

Target: T1, porcine pancreatic lipase (Sus scrofa, UniProt P00591)
T1 sequence (P00591 1-450): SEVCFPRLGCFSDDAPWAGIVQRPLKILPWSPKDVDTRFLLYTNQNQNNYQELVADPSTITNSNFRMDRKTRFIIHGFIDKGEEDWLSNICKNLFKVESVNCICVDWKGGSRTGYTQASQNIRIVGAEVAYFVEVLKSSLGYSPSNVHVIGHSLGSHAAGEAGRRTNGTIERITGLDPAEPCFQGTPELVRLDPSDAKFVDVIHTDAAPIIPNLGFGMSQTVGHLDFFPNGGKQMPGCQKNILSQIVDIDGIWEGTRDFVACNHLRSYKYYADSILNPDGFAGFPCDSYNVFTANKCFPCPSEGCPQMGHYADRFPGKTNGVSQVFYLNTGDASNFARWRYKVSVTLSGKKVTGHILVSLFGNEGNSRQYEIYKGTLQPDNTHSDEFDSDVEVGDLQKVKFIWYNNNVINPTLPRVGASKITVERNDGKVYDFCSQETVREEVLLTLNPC
Test: Lipase enzyme activity, NaOH titration method (lipid micelles)
Type: biochemical
Conditions: NaOH titration assay; system containing lipid micelles
Experimental: Measurement of Lipase Enzyme Activity Using a NaOH Titration Method
The inhibitory activity of the selected compounds to pancreatic lipase was measured in the assay described in Pasquier et al; 1996, Vol 7, Nutritional Biochemistry, 293-302.
Log dose/response curves were constructed using a range of inhibitor concentrations.
Selected benzoxazinone compounds were tested in the NaOH titration assay. In this assay, the activity of porcine pancreatic lipase in a system containing lipid micelles is recorded. These conditions are therefore similar to those encountered in the gastrointestinal tract.

Row | IC50 | Structure (SMILES)
1 | < 1000 nM | Cc1ccc2nc(Sc3ccccc3)oc(=O)c2c1 [Compound 4, 6-Methyl-2-phenylthio-4H-3,1-benzoxazin-4-one]
2 | < 1000 nM | Cc1ccc2nc(SCCCCCCCCCCc3ccccc3)oc(=O)c2c1 [Compound 5, 6-Methyl-2-(10-phenyldecyl)-thio-4H-3,1-benzoxazin-4-one]
